Numbered stars: 1 amine (or outer) side, 2 acyl side, 3 side chain; on linkers, the order of the positions; unused ones are H or OH. Square brackets hold non-standard residues; d marks the D form. Peptide text beside a SMILES is read from it. X1 = CC(C)([C@@H]1CO1)n1cc([C@@H](O)[C@H](N[*:1])C(=O)[*:2])c2ccccc21; Ala(3R-Me,3-isobutenyl) = CC(C)=C[C@@H](C)[C@H](N)C(=O)O; NMeLeu(5-OH,4R) = CN[C@@H](C[C@@H](C)CO)C(=O)O; Phe(βR-OMe) = CO[C@H](c1ccccc1)[C@H](N)C(=O)O; NMeL = CN[C@@H](CC(C)C)C(=O)O
Experiments:
[1] = biological target: Mtb ClpC1 NTD (ClpC1^1-145) (Mycobacterium tuberculosis, UniProt P9WPC9); assay: biochemical; format: binding
ClpC2 [2] = format: cell-based, Mycobacterium smegmatis; conditions: Msm WT, OD600 0.5, 150 nM CymA, 37 °C, from 1 h to 8 h after addition
ClpC2 [3] = format: cell-based, Mycobacterium smegmatis; conditions: Msm, 150 nM CymA, around 8 h after addition
[4] = test system: ClpC1 hexamer/ClpP1P2 tetradecamer (ClpC1P); assay: FITC-casein degradation assay; format: biochemical, Mycobacterium tuberculosis; conditions: 2 μM CymA
Experimental: Degradation of FITC-casein (Sigma) was carried out in 50 mM HEPES-KOH pH 7.1, 150 mM KCl, 20 mM MgCl2, 10% glycerol by 0.5 μM ClpC1 hexamer and 0.8 μM ClpP1P2 tetradecamer with the addition of 0.4 mM activator peptide benzyloxycarbonyl-L-leucyl-L-leucinal (PeptaNova), 0.5 mM DTT, 1 U/ml creatine phosphokinase, 20 mM phosphocreatine, 10 mM ATP at 37 °C. […] Whereas the effect of an excess of ClpC2 on the degradation of FITC-casein (10 μM) was carried out in the presence of 100 μM ClpC2. Fluorescence intensity increases upon degradation of FITC-casein as a consequence of fluorophore dequenching was monitored using the BioTek Synergy 2 Plate Reader with a 485/20 nm band-pass […] filter. Rates of degradation were determined from the initial slopes and used to determine the CymA-induced stimulation of ClpC1P activity at the different concentrations of ClpC2.

clpC2 mRNA = assay: RT-qPCR of clpC2 expression after CymA; format: cell-based, Mycobacterium smegmatis; conditions: Msm, 150 nM CymA; for Cq value ClpC2 / Cq value RpoB (reference gene): 1 h
[5] = test system: ClpC2 / clpC2 operator DNA; assay: EMSA, ClpC2 binding to clpC2 operator DNA; design: species or system Mycobacterium tuberculosis; conditions: for fraction of DNA bound to ClpC2: 1 μM CymA
ClpC1 [6] = conditions: Msm, 150 nM CymA, 0-8 h
mycobacteria = conditions: cited from earlier work
Escherichia coli = conditions: cited from earlier work
Description: (§1) CymA is a cyclic heptapeptide that is synthesised by the marine bacterium Streptomyces sp. CNB-982[33]–[35].

Staphylococcus aureus = conditions: cited from earlier work
Description: as §1

ClpC1 NTD = conditions: cited from earlier work
ClpC1 [7] = conditions: cited from earlier work
Mycobacterium smegmatis = assay: Growth curves of Msm strains with CymA
Experimental: Mycobacterium smegmatis MC^2155 SMR5 and derived strains were routinely grown at 37 °C with shaking in DIFCO™ Middlebrook7H9 broth (BD) supplemented with 0.05% Tween 80 and 0.2% glycerol. The antibiotics apramycin (50 µg/ml) or hygromycin B (100 µg/ml) were added as needed. […] The DMSO concentration of cultures was maintained at less than 1% in all instances.
Msm cultures were diluted to an OD600 of 0.005 in 7H9. […] The cultures were grown at 37 °C with shaking (200 rpm) and the culture growth monitored by periodically measuring the OD600.

Sequence of Mtb ClpC1 NTD (ClpC1^1-145) (P9WPC9 1-145): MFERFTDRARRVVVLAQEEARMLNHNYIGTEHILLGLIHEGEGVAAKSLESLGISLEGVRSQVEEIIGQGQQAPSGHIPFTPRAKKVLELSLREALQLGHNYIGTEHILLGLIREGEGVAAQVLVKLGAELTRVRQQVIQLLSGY

CO[C@H](c1ccccc1)[C@@H]1NC(=O)[C@H](C)NC(=O)[C@H](C[C@@H](C)CO)N(C)C(=O)[C@H]([C@H](O)c2cn(C(C)(C)[C@@H]3CO3)c3ccccc23)NC(=O)[C@H]([C@H](C)C=C(C)C)NC(=O)[C@H](CC(C)C)N(C)C(=O)[C@H](C(C)C)NC1=O [CymA, cyclomarin A] (cyclo(A[Phe(βR-OMe)]V[NMeL][Ala(3R-Me,3-isobutenyl)][X1][NMeLeu(5-OH,4R)]))
Kd [1]: 2.3 nM | ClpC2 Western blot signal (ClpC2 [2]): increases by several orders of magnitude | ClpC2 level in excess of ClpC1 (ClpC2 [3]): 84 fold | FITC-casein degradation rate ([4]; 0 μM ClpC2, 37 °C, replicate 1): 8.073 min⁻¹ | FITC-casein degradation rate ([4]; 0 μM ClpC2, 37 °C, replicate 2): 7.688 min⁻¹ | FITC-casein degradation rate ([4]; 0 μM ClpC2, 37 °C, replicate 3): 7.795 min⁻¹ | FITC-casein degradation rate ([4]; 0.2 μM ClpC2, 37 °C, replicate 1): 7.586 min⁻¹ | FITC-casein degradation rate ([4]; 0.2 μM ClpC2, 37 °C, replicate 2): 7.529 min⁻¹ | FITC-casein degradation rate ([4]; 0.2 μM ClpC2, 37 °C, replicate 3): 6.77 min⁻¹ | FITC-casein degradation rate ([4]; 0.5 μM ClpC2, 37 °C, replicate 1): 6.271 min⁻¹ | FITC-casein degradation rate ([4]; 0.5 μM ClpC2, 37 °C, replicate 2): 6.851 min⁻¹ | FITC-casein degradation rate ([4]; 0.5 μM ClpC2, 37 °C, replicate 3): 6.213 min⁻¹ | FITC-casein degradation rate ([4]; 1 μM ClpC2, 37 °C, replicate 1): 6.248 min⁻¹ | FITC-casein degradation rate ([4]; 1 μM ClpC2, 37 °C, replicate 2): 6.426 min⁻¹ | FITC-casein degradation rate ([4]; 1 μM ClpC2, 37 °C, replicate 3): 5.933 min⁻¹ | FITC-casein degradation rate ([4]; 2 μM ClpC2, 37 °C, replicate 1): 4.9721 min⁻¹ | FITC-casein degradation rate ([4]; 2 μM ClpC2, 37 °C, replicate 2): 4.555 min⁻¹ | FITC-casein degradation rate ([4]; 2 μM ClpC2, 37 °C, replicate 3): 5.043 min⁻¹ | FITC-casein degradation rate ([4]; 4 μM ClpC2, 37 °C, replicate 1): 4.194 min⁻¹ | FITC-casein degradation rate ([4]; 4 μM ClpC2, 37 °C, replicate 2): 4.045 min⁻¹ | FITC-casein degradation rate ([4]; 4 μM ClpC2, 37 °C, replicate 3): 3.662 min⁻¹ | FITC-casein degradation rate ([4]; 8 μM ClpC2, 37 °C, replicate 1): 3.41 min⁻¹ | FITC-casein degradation rate ([4]; 8 μM ClpC2, 37 °C, replicate 2): 3.29 min⁻¹ | FITC-casein degradation rate ([4]; 8 μM ClpC2, 37 °C, replicate 3): 3.596 min⁻¹ | FITC-casein degradation rate ([4]; 12 μM ClpC2, 37 °C, replicate 1): 3.454 min⁻¹ | FITC-casein degradation rate ([4]; 12 μM ClpC2, 37 °C, replicate 2): 2.89 min⁻¹ | FITC-casein degradation rate ([4]; 12 μM ClpC2, 37 °C, replicate 3): 2.828 min⁻¹ | FITC-casein degradation rate ([4]; 18 μM ClpC2, 37 °C, replicate 1): 3.091 min⁻¹ | FITC-casein degradation rate ([4]; 18 μM ClpC2, 37 °C, replicate 2): 2.23 min⁻¹ | FITC-casein degradation rate ([4]; 18 μM ClpC2, 37 °C, replicate 3): 2.386 min⁻¹ | Cq value ClpC2 (clpC2 mRNA; replicate 1): 21.9726 | Cq value RpoB (reference gene) (clpC2 mRNA; replicate 1): 23.9629 | Cq value ClpC2 (clpC2 mRNA; replicate 2): 21.7648 | Cq value RpoB (reference gene) (clpC2 mRNA; replicate 2): 24.1812 | Cq value ClpC2 (clpC2 mRNA; replicate 3): 20.9483 | Cq value RpoB (reference gene) (clpC2 mRNA; replicate 3): 23.5984 | increase in clpC2 mRNA (clpC2 mRNA; one hour, normalised to rpoB, biological n = 3, P = 0.0015 (two-tailed unpaired t test)): 263 fold | fraction of DNA bound to ClpC2 ([5]; 1 nM ClpC2, replicate 1): 0 | fraction of DNA bound to ClpC2 ([5]; 1 nM ClpC2, replicate 2): 0.02788 | fraction of DNA bound to ClpC2 ([5]; 1 nM ClpC2, replicate 3): 0.04348 | fraction of DNA bound to ClpC2 ([5]; 2 nM ClpC2, replicate 1): 0 | fraction of DNA bound to ClpC2 ([5]; 2 nM ClpC2, replicate 2): 0.03704 | fraction of DNA bound to ClpC2 ([5]; 2 nM ClpC2, replicate 3): 0.05455 | fraction of DNA bound to ClpC2 ([5]; 5 nM ClpC2, replicate 1): 0.09091 | fraction of DNA bound to ClpC2 ([5]; 5 nM ClpC2, replicate 2): 0.08 | fraction of DNA bound to ClpC2 ([5]; 5 nM ClpC2, replicate 3): 0.06873 | fraction of DNA bound to ClpC2 ([5]; 10 nM ClpC2, replicate 1): 0.1629 | fraction of DNA bound to ClpC2 ([5]; 10 nM ClpC2, replicate 2): 0.1615 | fraction of DNA bound to ClpC2 ([5]; 10 nM ClpC2, replicate 3): 0.1694 | fraction of DNA bound to ClpC2 ([5]; 15 nM ClpC2, replicate 1): 0.2974 | fraction of DNA bound to ClpC2 ([5]; 15 nM ClpC2, replicate 2): 0.2686 | fraction of DNA bound to ClpC2 ([5]; 15 nM ClpC2, replicate 3): 0.2612 | fraction of DNA bound to ClpC2 ([5]; 25 nM ClpC2, replicate 1): 0.5671 | fraction of DNA bound to ClpC2 ([5]; 25 nM ClpC2, replicate 2): 0.4781 | fraction of DNA bound to ClpC2 ([5]; 25 nM ClpC2, replicate 3): 0.3902 | fraction of DNA bound to ClpC2 ([5]; 50 nM ClpC2, replicate 1): 0.7982 | fraction of DNA bound to ClpC2 ([5]; 50 nM ClpC2, replicate 2): 0.7344 | fraction of DNA bound to ClpC2 ([5]; 50 nM ClpC2, replicate 3): 0.731 | effect of CymA on ClpC2-operator DNA binding ([5]; EMSA, 1 µM CymA, room temperature, 20 min, pH 7.5): noticeable inhibitory effect on the interaction between ClpC2 and its operator site | ClpC1 level after CymA (ClpC1 [6]): remained fairly constant | activity against mycobacteria (mycobacteria): effective against mycobacteria | activity against Escherichia coli (Escherichia coli): little activity | activity against Staphylococcus aureus (Staphylococcus aureus): little activity | target binding domain (ClpC1 NTD): specifically target ClpC1 NTD | effect on ClpC1 ATPase and proteolytic activity (ClpC1 [7]): enhance the ATPase and proteolytic activity as well as reduce substrate specificity of ClpC1 | growth of ΔclpC2 with CymA (Mycobacterium smegmatis; Msm ΔclpC2, sub-MIC50 CymA (150 nM), 7H9, 37 °C, vs parent strain): diminished growth compared to the parent strain | growth of comclpC2 F99A with CymA (Mycobacterium smegmatis; Msm ΔclpC2 complemented with clpC2 F99A, 150 nM CymA, 7H9, 37 °C): attenuated growth upon exposure to CymA | growth of comclpC2 R188A/R192A with CymA (Mycobacterium smegmatis; Msm ΔclpC2 complemented with clpC2 R188A/R192A, in the presence of CymA): lack of growth impairment | growth of comclpC2 WT with CymA (Mycobacterium smegmatis; Msm ΔclpC2 complemented with clpC2 WT, 150 nM CymA, 7H9, 37 °C): the WT phenotype was restored

From PMC10030653, “ClpC2 protects mycobacteria against a natural antibiotic targeting ClpC1-dependent protein degradation” (Communications Biology, 2023)
